Test system: 616215-338-R-J1-PDC complex spheroids, viability % test/control
Test: Anticancer human tumor 616215-338-R-J1-PDC patient-derived colon adenocarcinoma cell line growth inhibition [CLK]
Conditions: for IC50: curve of first compound; for viability, T/C: stronger effect = lower value; active means viability on the fitted dose curve at most 10% of control; inactive means the rest
Outline: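 Patient-derived tumor cells grown as complex spheroids with HUVEC endothelial cells and mesenchymal stem cells, treated with drug combinations. Concentrations descend in half-log steps from near clinical Cmax, or from 10 microM if Cmax unknown.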

[1] = second compound 0.0316 µM, first compound 0.0316 µM
[2] = second compound 0.0316 µM, first compound 0.1 µM
[3] = second compound 0.0316 µM, first compound 0.316 µM
[4] = second compound 0.0316 µM, first compound 1 µM
[5] = second compound 0.1 µM, first compound 0.0316 µM
[6] = second compound 0.1 µM, first compound 0.1 µM
[7] = second compound 0.1 µM, first compound 0.316 µM
[8] = second compound 0.1 µM, first compound 1 µM
[9] = second compound 0.316 µM, first compound 0.0316 µM
[10] = second compound 0.316 µM, first compound 0.1 µM
[11] = second compound 0.316 µM, first compound 0.316 µM
[12] = second compound 0.316 µM, first compound 1 µM
[13] = second compound 1 µM, first compound 0.0316 µM
[14] = second compound 1 µM, first compound 0.1 µM
[15] = second compound 1 µM, first compound 0.316 µM
[16] = second compound 1 µM, first compound 1 µM
[17] = second compound 3.16 µM, first compound 0.0316 µM
[18] = second compound 3.16 µM, first compound 0.1 µM
[19] = second compound 3.16 µM, first compound 0.316 µM
[20] = second compound 3.16 µM, first compound 1 µM
[21] = second compound 10 µM, first compound 0.0316 µM
[22] = second compound 10 µM, first compound 0.1 µM
[23] = second compound 10 µM, first compound 0.316 µM
[24] = second compound 10 µM, first compound 1 µM
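Further: spheroids exposed to agents for 7 days.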
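Wherever viability, T/C is given: 100% = DMSO vehicle wells.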

COC1C=CCC(C)C(C)S(=O)(=O)NC(=O)c2ccc3c(c2)N(CC2CCC21)CC1(CCCc2cc(Cl)ccc21)CO3 (centres undefined) + CNC(=O)c1ccc(Nc2nc(OC3CCCC3)c3c(-c4ccc5nc(C)oc5c4)c[nH]c3n2)c(OC)c1
inactive: viability, T/C [1] 95.9% | viability, T/C [2] 95.1% | viability, T/C [3] 94% | viability, T/C [4] 86.2% | viability, T/C (second compound 0.0316 µM, first compound 3.16 µM) 104% | viability, T/C (second compound 0.0316 µM, first compound 10 µM) 52.3% | viability, T/C [5] 56.5% | viability, T/C [6] 57% | viability, T/C [7] 57.6% | viability, T/C [8] 60.9% | viability, T/C (second compound 0.1 µM, first compound 3.16 µM) 59% | viability, T/C (second compound 0.1 µM, first compound 10 µM) 34% | viability, T/C [9] 37.2% | viability, T/C [10] 43.9% | viability, T/C [11] 33% | viability, T/C [12] 25.7% | viability, T/C (second compound 0.316 µM, first compound 3.16 µM) 19.6% | viability, T/C (second compound 0.316 µM, first compound 10 µM) 20.4% | viability, T/C [13] 35.1% | viability, T/C [14] 39.7% | viability, T/C [15] 34.3% | viability, T/C [16] 26.4% | viability, T/C (second compound 1 µM, first compound 3.16 µM) 21.5% | viability, T/C (second compound 1 µM, first compound 10 µM) 17.1% | viability, T/C [17] 41.6% | viability, T/C [18] 41% | viability, T/C [19] 34.5% | viability, T/C [20] 27.2% | viability, T/C (second compound 3.16 µM, first compound 3.16 µM) 22.8% | viability, T/C (second compound 3.16 µM, first compound 10 µM) 20.3% | viability, T/C [21] 40.7% | viability, T/C [22] 33.7% | viability, T/C [23] 29.8% | viability, T/C [24] 26.5% | viability, T/C (second compound 10 µM, first compound 3.16 µM) 19.6% | viability, T/C (second compound 10 µM, first compound 10 µM) 17.3%
< 0.0316 µM: IC50 (second compound 0.316 µM) | IC50 (second compound 1 µM) | IC50 (second compound 3.16 µM) | IC50 (second compound 10 µM)
4.64 µM: IC50 (second compound 0.1 µM)
> 10 µM: IC50 (second compound 0.0316 µM)

COc1c(OCCCN2CCOCC2)ccc2c3n(c(=NC(=O)c4cnc(N)nc4)nc12)CCN3 + CN1CCN(c2cc(C(=O)Nc3cc4cc(-c5cnn(C)c5)ccc4cn3)ccn2)CC1
0.0362 µM: IC50 (second compound 0.1 µM)
< 0.00316 µM: IC50 (second compound 0.316 µM) | IC50 (second compound 1 µM) | IC50 (second compound 3.16 µM) | IC50 (second compound 10 µM)
active: viability, T/C [10] 6.03% | viability, T/C [11] 4.47% | viability, T/C [12] 4.01% | viability, T/C (second compound 1 µM, first compound 0.00316 µM) 0.24% | viability, T/C (second compound 1 µM, first compound 0.01 µM) 1.7% | viability, T/C [13] 0.49% | viability, T/C [14] 0.1% | viability, T/C [15] 0.08% | viability, T/C [16] 1.24% | viability, T/C (second compound 3.16 µM, first compound 0.00316 µM) 0.1% | viability, T/C (second compound 3.16 µM, first compound 0.01 µM) 2.88% | viability, T/C [17] 0.11% | viability, T/C [18] 0.1% | viability, T/C [19] 1.07% | viability, T/C [20] 0.15% | viability, T/C (second compound 10 µM, first compound 0.00316 µM) 0.12% | viability, T/C (second compound 10 µM, first compound 0.01 µM) 0.15% | viability, T/C [21] 0.98% | viability, T/C [22] 0.33% | viability, T/C [23] 0.17% | viability, T/C [24] 1.41%
inactive: viability, T/C (second compound 0.0316 µM, first compound 0.00316 µM) 105% | viability, T/C (second compound 0.0316 µM, first compound 0.01 µM) 115% | viability, T/C [1] 89.8% | viability, T/C [2] 44% | viability, T/C [3] 30.8% | viability, T/C [4] 21.6% | viability, T/C (second compound 0.1 µM, first compound 0.00316 µM) 110% | viability, T/C (second compound 0.1 µM, first compound 0.01 µM) 94.4% | viability, T/C [5] 50.1% | viability, T/C [6] 29.1% | viability, T/C [7] 19.1% | viability, T/C [8] 12.3% | viability, T/C (second compound 0.316 µM, first compound 0.00316 µM) 26.4% | viability, T/C (second compound 0.316 µM, first compound 0.01 µM) 25.1% | viability, T/C [9] 11.8%
0.0866 µM: IC50 (second compound 0.0316 µM)
